Numbering of substitutions follows the chain as printed. In names and notes the source's numbering stands.

Experimental findings from article PMC6193951, “Intra- and inter-protein couplings of backbone motions underlie protein thiol-disulfide exchange cascade” (Scientific Reports, 2018) are described below.

The target in assay [1] is T1, B. subtilis ArsC (Bs_ArsC), reduced state re-ArsC (Bacillus subtilis, UniProt P45947).
T1 construct: full-length, 139 residues; recombinant, prepared as previously reported; reduced state (C10, C82, C89 free thiols)
T1 sequence (P45947 1-139): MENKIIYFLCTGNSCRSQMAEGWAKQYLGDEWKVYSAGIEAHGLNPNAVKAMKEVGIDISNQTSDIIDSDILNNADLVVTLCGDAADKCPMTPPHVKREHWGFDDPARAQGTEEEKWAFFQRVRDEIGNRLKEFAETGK
As to the kind of experiment: isothermal titration calorimetry. Format: binding. (In general: ITC needs no label: the signal is the heat of the interaction.)

For assay [2], the target named is T2, B. subtilis arsenate reductase ArsC_C10SC15AC82S mutant (ArsC in the Trx-complexed state) (B. subtilis, UniProt P45947 1-139, C10S | C15A | C82S, C89 forms an intermolecular disulfide bond with Trx (C89^ArsC-C29^Trx); 15N-labeled in one sample, unlabeled in the other).
T2 construct: Thioredoxin-coupled arsenate reductase ArsC, Bacillus subtilis; triple mutant C10S/C15A/C82S used to trap the mixed-disulfide complex; also called c-ArsC; source: purity greater than 95% by SDS-PAGE
T2 sequence: T1 sequence (P45947 1-139) with C10S, C15A, C82S
As to the kind of experiment: preparation of a mixed-disulfide complex (DTNB incubation), studied by NMR (15N CPMG RD, CEST); Trx_C32S and ArsC_C10SC15AC82S linked by an intermolecular disulfide with the 5,5-dithiobis(2-nitrobenzoic acid) incubation protocol; NMR samples in 20 mM Tris-HCl (pH 6.85), 40 mM KCl, 20 mM urea, 20 mM Na2SO4; 25 °C. Conditions: both partners purified.

As usually defined, the Kd is the constant that tells how readily two partners part at equilibrium. A low value points to higher affinity. In assay [1], `O=S(=O)(O)O` [sulfate] yielded a dissociation constant (Kd) of 700 µM.

B1: B. subtilis thioredoxin Trx_C32S mutant (Trx in the ArsC-complexed state) (enzyme)
chain: MAIVKATDQSFSAETSEGVVLADFWAPWCGPSKMIAPVLEELDQEMGDKLKIVKIDVDENQETAGKYGVMSIPTLLVLKDGEVVETSVGFKPKEALQELVNKHL
modifications: C29 in the mixed disulfide with ArsC C89 (C89^ArsC-C29^Trx); 15N-labeled in one sample, unlabeled in the other
notes: Thioredoxin (Trx), Bacillus subtilis; C32S mutant used to trap the mixed-disulfide complex; also called c-Trx; source: purity greater than 95% by SDS-PAGE
With B1, the binding result in assay [2] is on record as “binds”.
